Numbered stars: 1 amine (or outer) side, 2 acyl side, 3 side chain; on linkers, the order of the positions; unused ones are H or OH. Square brackets hold non-standard residues; d marks the D form. Side chains are listed from the residue outwards. Peptide text beside a SMILES is read from it. * marks the point of attachment. C20 diacid = O=C(O)CCCCCCCCCCCCCCCCCCC(=O)*; γGlu = O=C(O)[C@H](CCC(=O)[*:2])N[*:1]; αMeL = CC(C)C[C@](C)(N)C(=O)O; AEEA = NCCOCCOCC(=O)O; Aib = CC(C)(N)C(=O)O
Key:
[1] = biological target: T1, gastric inhibitory peptide receptor (GIPR) (Homo sapiens, UniProt P48546); experiment: cAMP pharmacological functional assay in presence of casein, hGIPR; assay type: cell-based; conditions: HEK293 cells expressing hGIPR, 0.1% Casein, geometric mean; read-out: hGIPR cAMP Rel EC50 nM (SEM, n)
T1 sequence (P48546 22-466): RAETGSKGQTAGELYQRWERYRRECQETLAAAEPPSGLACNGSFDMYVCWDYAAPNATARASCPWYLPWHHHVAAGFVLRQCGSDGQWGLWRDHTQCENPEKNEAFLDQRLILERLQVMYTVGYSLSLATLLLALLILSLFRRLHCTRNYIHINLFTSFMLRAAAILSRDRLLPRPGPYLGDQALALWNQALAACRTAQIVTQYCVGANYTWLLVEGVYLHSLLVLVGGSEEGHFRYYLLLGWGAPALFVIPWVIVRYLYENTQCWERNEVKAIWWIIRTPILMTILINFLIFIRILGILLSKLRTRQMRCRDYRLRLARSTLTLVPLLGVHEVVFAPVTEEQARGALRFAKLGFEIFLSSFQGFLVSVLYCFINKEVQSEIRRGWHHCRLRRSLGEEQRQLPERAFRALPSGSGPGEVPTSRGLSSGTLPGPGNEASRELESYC

human GLP-1R [2] = biological target: T2, human GLP-1R (Homo sapiens, UniProt P43220); experiment: GLP-1R CHO cell β-arrestin recruitment assay; assay type: cell-based; parameters: host or cells: CHO-K1 PathHunter cells, assay-ready frozen; conditions: for EC50: CHO-K1 cells; for hGLP1R B-Arrestin2 % Top: normalized to GLP-1 maximum control
Procedure, shortened: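 PathHunter CHO-K1 cells with ProLink-tagged human GLP-1R and enzyme-acceptor-tagged β-arrestin-2 treated with serially diluted peptides in assay buffer containing 0.1% hydrolyzed casein, 90 min at 37 °C.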

[3] = biological target: human GLP-1 receptor (GLP-1R) (Homo sapiens, UniProt P43220); experiment: cAMP pharmacological functional assay in presence of casein, hGLP-1R; assay type: cell-based; conditions: HEK293 cells expressing hGLP-1R, 0.1% Casein, geometric mean; read-out: hGLP1R cAMP Rel EC50 nM (SEM, n)
human Gcg receptor = biological target: T3, human Gcg receptor (Homo sapiens, UniProt P47871); experiment: [125I]-Glucagon binding (SPA), human Gcg receptor; conditions: read-out: hGLcgR Ki, nM (SEM, n)
T3 construct: expressed in transfected cells; crude membranes
Procedure, shortened: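 Scintillation counts are taken after membranes and WGA beads incubate and settle for 12 hours at room temperature. Buffer is 25 mM HEPES, pH 7.4, with CaCl2, MgCl2, bacitracin and Tween-20. Ki values, from four-parameter IC50 fits, are geometric means over independent days.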

human GLP-1R [4] = biological target: T2, human GLP-1R; experiment: GLP-1R HEK293 cell membrane [35S]GTPγS binding assay; assay type: biochemical; parameters: expressed in transfected cells; host or cells: HEK293 cells expressing human GLP-1R; membranes; conditions: HEK293 cell membranes expressing human GLP-1R, [35S]GTPγS binding; read-out: hGLP1R GTPgS Rel EC50 nM (SEM, n)
Procedure, shortened: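 Membranes from HEK293 cells expressing the receptor incubated with peptide and […] [35S]GTPγS in HEPES pH 7.4 buffer with NaCl, MgCl2, saponin and BSA, 30 min at room temperature. Gαs-bound label captured by anti-Gαs antibody/SPA beads and counted; EC50 from four-parameter logistic fit.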

human GIP receptor = biological target: T4, human GIP receptor (Homo sapiens, UniProt P48546); experiment: [125I]-GIP binding (SPA), human GIP receptor; conditions: read-out: hGIPR Ki, nM (SEM, n)
T4 construct: expressed in transfected cells; crude membranes
T4 sequence (P48546 22-466): T1 sequence (P48546 22-466)

human GLP-1R [5] = biological target: T2, human GLP-1R; experiment: [125I]-GLP-1 binding (SPA), human GLP-1 receptor; parameters: expressed in transfected cells; crude membranes; conditions: read-out: hGLP1R Ki, (nM) (SEM, n)
Procedure, shortened: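 Frozen cell pellets are lysed on ice in hypotonic Tris buffer, pH 7.5, homogenized, and centrifuged to a membrane pellet resuspended at about 1 to 3 mg/mL. Binding is then measured in HEPES-based buffer at pH 7.4, and curves are fitted to give IC50 and Ki.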

[6] = PathHunter β-arrestin-2 recruitment, 0.1% casein, read-out: hGLP1R B-Arrestin2 Rel EC50 uM (SEM, n)

T3 sequence (P47871 26-477): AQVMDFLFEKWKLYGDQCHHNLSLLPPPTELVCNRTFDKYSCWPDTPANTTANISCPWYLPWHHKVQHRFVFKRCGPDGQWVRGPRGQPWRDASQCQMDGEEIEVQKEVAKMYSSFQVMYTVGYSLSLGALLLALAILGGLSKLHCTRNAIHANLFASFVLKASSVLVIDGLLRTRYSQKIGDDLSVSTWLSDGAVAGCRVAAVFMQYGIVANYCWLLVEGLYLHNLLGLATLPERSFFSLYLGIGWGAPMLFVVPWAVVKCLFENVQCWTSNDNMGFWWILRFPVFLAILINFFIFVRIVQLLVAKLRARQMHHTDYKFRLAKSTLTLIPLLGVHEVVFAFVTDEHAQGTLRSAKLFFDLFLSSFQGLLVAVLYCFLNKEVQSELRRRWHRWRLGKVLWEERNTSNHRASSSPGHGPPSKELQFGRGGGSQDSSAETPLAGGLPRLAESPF
human GLP-1 receptor (GLP-1R), sequence (P43220 24-463): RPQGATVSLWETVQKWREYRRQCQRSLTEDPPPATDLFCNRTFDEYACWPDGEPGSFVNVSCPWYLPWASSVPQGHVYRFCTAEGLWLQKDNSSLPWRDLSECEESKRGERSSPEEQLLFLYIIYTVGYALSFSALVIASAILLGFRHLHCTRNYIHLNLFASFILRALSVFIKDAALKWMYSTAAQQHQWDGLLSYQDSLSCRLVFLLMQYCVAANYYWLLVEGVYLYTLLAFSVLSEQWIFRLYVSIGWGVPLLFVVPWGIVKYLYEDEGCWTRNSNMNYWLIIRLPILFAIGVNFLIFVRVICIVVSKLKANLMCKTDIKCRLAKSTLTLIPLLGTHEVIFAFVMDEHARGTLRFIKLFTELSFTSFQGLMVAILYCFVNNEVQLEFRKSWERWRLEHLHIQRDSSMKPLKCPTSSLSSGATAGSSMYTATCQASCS
T2 sequence (P43220 24-463): as above

How did the EC50 [1] turn out when `CC[C@H](C)[C@H](NC(=O)[C@H](CC(C)C)NC(=O)[C@H](Cc1ccc(O)cc1)NC(=O)[C@H](CCC(=O)O)NC(=O)[C@@H](NC(=O)[C@H](Cc1ccccc1)NC(=O)[C@H](CCC(=O)O)NC(=O)C(C)(C)NC(=O)[C@H](CCC(N)=O)NC(=O)[C@H](C)NC(=O)[C@H](CCCCNC(=O)COCCOCCNC(=O)COCCOCCNC(=O)CC[C@H](NC(=O)CCCCCCCCCCCCCCCCCCC(=O)O)C(=O)O)NC(=O)[C@H](CCC(=O)O)NC(=O)[C@H](CC(=O)O)NC(=O)[C@H](CC(C)C)NC(=O)[C@](C)(CC(C)C)NC(=O)[C@@H](NC(=O)[C@H](CO)NC(=O)[C@H](Cc1ccc(O)cc1)NC(=O)[C@H](CC(=O)O)NC(=O)[C@H](CO)NC(=O)[C@@H](NC(=O)[C@H](Cc1ccccc1)NC(=O)[C@@H](NC(=O)CNC(=O)[C@H](CCC(=O)O)NC(=O)C(C)(C)NC(=O)[C@@H](N)Cc1ccc(O)cc1)[C@@H](C)O)[C@@H](C)O)[C@@H](C)CC)[C@@H](C)CC)C(=O)N[C@@H](C)C(=O)NCC(=O)NCC(=O)N1CCC[C@H]1C(=O)N[C@@H](CO)C(=O)N[C@@H](CO)C(=O)NCC(=O)N[C@@H](C)C(=O)N1CCC[C@H]1C(=O)N1CCC[C@H]1C(=O)N1CCC[C@H]1C(=O)N[C@@H](CO)C(N)=O` [Example 331] (H-Y[Aib]EGTFTSDYSI[αMeL]LDEK([AEEA-AEEA-γGlu-C20 diacid])AQ[Aib]EFIEYLIAGGPSSGAPPPS-NH2) was run?
The EC50 was 0.0547 nM.

What about the EC50 (human GLP-1R [2]; [6]) of the same compound?
The EC50 was 0.0128 µM.

What about the “hGLP1R B-Arrestin2 % Top” value (human GLP-1R [2]) of the same compound?
Its value is 44.3%.

And the EC50 [3]?
Its EC50 is 0.0929 nM.

What about the Ki (human Gcg receptor) of the same compound?
Its Ki is greater than 969 nM.

What about the EC50 (human GLP-1R [4]) of the same compound?
The EC50 was 0.375 nM.

What about the Ki (human GIP receptor) of the same compound?
The Ki was 0.0851 nM.

What about the Ki (human GLP-1R [5]) of the same compound?
Its Ki is 11.4 nM.

What does the source list for `CC[C@H](C)[C@H](NC(=O)[C@H](CC(C)C)NC(=O)[C@H](Cc1ccc(O)cc1)NC(=O)[C@H](CCC(=O)O)NC(=O)[C@@H](NC(=O)[C@H](Cc1ccccc1)NC(=O)[C@H](C)NC(=O)C(C)(C)NC(=O)[C@H](CCC(N)=O)NC(=O)[C@H](C)NC(=O)[C@H](CCCCNC(=O)COCCOCCNC(=O)COCCOCCNC(=O)CC[C@H](NC(=O)CCCCCCCCCCCCCCCCCCC(=O)O)C(=O)O)NC(=O)[C@H](CCC(=O)O)NC(=O)[C@H](CC(=O)O)NC(=O)[C@H](CC(C)C)NC(=O)[C@](C)(CC(C)C)NC(=O)[C@@H](NC(=O)[C@H](CO)NC(=O)[C@H](Cc1ccc(O)cc1)NC(=O)[C@H](CC(=O)O)NC(=O)[C@H](CO)NC(=O)[C@@H](NC(=O)[C@H](Cc1ccccc1)NC(=O)[C@@H](NC(=O)CNC(=O)[C@H](CCC(=O)O)NC(=O)C(C)(C)NC(=O)[C@@H](N)Cc1ccc(O)cc1)[C@@H](C)O)[C@@H](C)O)[C@@H](C)CC)[C@@H](C)CC)C(=O)N[C@@H](C)C(=O)NCC(=O)NCC(=O)N1CCC[C@H]1C(=O)N[C@@H](CO)C(=O)N[C@@H](CO)C(=O)NCC(=O)N[C@@H](C)C(=O)N1CCC[C@H]1C(=O)N1CCC[C@H]1C(=O)N1CCC[C@H]1C(=O)N[C@@H](CO)C(N)=O` [Example 332] (H-Y[Aib]EGTFTSDYSI[αMeL]LDEK([AEEA-AEEA-γGlu-C20 diacid])AQ[Aib]AFIEYLIAGGPSSGAPPPS-NH2)?
EC50 [1]: 0.0745 nM; EC50 (human GLP-1R [2]; [6]): 0.0171 µM; hGLP1R B-Arrestin2 % Top (human GLP-1R [2]): 45.6%; EC50 [3]: 0.184 nM; Ki (human Gcg receptor): 397 nM; EC50 (human GLP-1R [4]): 0.453 nM; Ki (human GIP receptor): 0.0497 nM; Ki (human GLP-1R [5]): 7.87 nM

`CC[C@H](C)[C@H](NC(=O)[C@H](CC(C)C)NC(=O)[C@H](Cc1ccc(O)cc1)NC(=O)[C@H](CCC(=O)O)NC(=O)[C@@H](NC(=O)[C@H](Cc1ccccc1)NC(=O)[C@H](CCC(=O)O)NC(=O)C(C)(C)NC(=O)[C@H](CCC(N)=O)NC(=O)[C@H](C)NC(=O)[C@H](CCCCNC(=O)COCCOCCNC(=O)COCCOCCNC(=O)CC[C@H](NC(=O)CCCCCCCCCCCCCCCCCCC(=O)O)C(=O)O)NC(=O)[C@H](CCCCN)NC(=O)[C@H](CC(=O)O)NC(=O)[C@H](CC(C)C)NC(=O)[C@](C)(CC(C)C)NC(=O)[C@@H](NC(=O)[C@H](CO)NC(=O)[C@H](Cc1ccc(O)cc1)NC(=O)[C@H](CC(=O)O)NC(=O)[C@H](CO)NC(=O)[C@@H](NC(=O)[C@H](Cc1ccccc1)NC(=O)[C@@H](NC(=O)CNC(=O)[C@H](CCC(=O)O)NC(=O)C(C)(C)NC(=O)[C@@H](N)Cc1ccc(O)cc1)[C@@H](C)O)[C@@H](C)O)[C@@H](C)CC)[C@@H](C)CC)C(=O)N[C@@H](CCC(=O)O)C(=O)NCC(=O)NCC(=O)N1CCC[C@H]1C(=O)N[C@@H](CO)C(=O)N[C@@H](CO)C(=O)NCC(=O)N[C@@H](C)C(=O)N1CCC[C@H]1C(=O)N1CCC[C@H]1C(=O)N1CCC[C@H]1C(=O)N[C@@H](CO)C(N)=O` [Example 333] (H-Y[Aib]EGTFTSDYSI[αMeL]LDKK([AEEA-AEEA-γGlu-C20 diacid])AQ[Aib]EFIEYLIEGGPSSGAPPPS-NH2) was tested. Which EC50 [1] did it give?
The EC50 was 0.0492 nM.

What about the EC50 (human GLP-1R [2]; [6]) of the same compound?
Its EC50 is 0.0548 µM.

And the “hGLP1R B-Arrestin2 % Top” value (human GLP-1R [2])?
The value was 58.2%.

And the EC50 [3]?
Its EC50 is 0.131 nM.

And the Ki (human Gcg receptor)?
The Ki was 578 nM.

And the EC50 (human GLP-1R [4])?
Its EC50 is 0.442 nM.

What about the Ki (human GIP receptor) of the same compound?
Its Ki is 0.0634 nM.

What about the Ki (human GLP-1R [5]) of the same compound?
Its Ki is 4.25 nM.

With `CC[C@H](C)[C@H](NC(=O)[C@H](CC(C)C)NC(=O)[C@H](Cc1ccc(O)cc1)NC(=O)[C@H](CCC(=O)O)NC(=O)[C@@H](NC(=O)[C@H](Cc1ccccc1)NC(=O)[C@H](C)NC(=O)C(C)(C)NC(=O)[C@H](CCC(N)=O)NC(=O)[C@H](C)NC(=O)[C@H](CCCCNC(=O)COCCOCCNC(=O)COCCOCCNC(=O)CC[C@H](NC(=O)CCCCCCCCCCCCCCCCCCC(=O)O)C(=O)O)NC(=O)[C@H](CCCCN)NC(=O)[C@H](CC(=O)O)NC(=O)[C@H](CC(C)C)NC(=O)[C@](C)(CC(C)C)NC(=O)[C@@H](NC(=O)[C@H](CO)NC(=O)[C@H](Cc1ccc(O)cc1)NC(=O)[C@H](CC(=O)O)NC(=O)[C@H](CO)NC(=O)[C@@H](NC(=O)[C@H](Cc1ccccc1)NC(=O)[C@@H](NC(=O)CNC(=O)[C@H](CCC(=O)O)NC(=O)C(C)(C)NC(=O)[C@H](N)Cc1ccc(O)cc1)[C@@H](C)O)[C@@H](C)O)[C@@H](C)CC)[C@@H](C)CC)C(=O)N[C@@H](CCC(=O)O)C(=O)NCC(=O)NCC(=O)N1CCC[C@H]1C(=O)N[C@@H](CO)C(=O)N[C@@H](CO)C(=O)NCC(=O)N[C@@H](C)C(=O)N1CCC[C@H]1C(=O)N1CCC[C@H]1C(=O)N1CCC[C@H]1C(=O)N[C@@H](CO)C(N)=O` [Example 334] as the compound, how does the EC50 [1] read?
Its EC50 is 0.0718 nM.

What about the EC50 (human GLP-1R [2]; 0.1% w/v hydrolyzed Casein, read-out: hGLP1R B-Arrestin2 Rel EC50) of the same compound?
Its EC50 is greater than 10.3 µM.

What about the EC50 (human GLP-1R [2]; [6]) of the same compound?
Its EC50 is greater than 10.3 µM.

What about the EC50 [3] of the same compound?
The EC50 was 0.303 nM.

And the Ki (human Gcg receptor)?
The Ki was 192 nM.

What about the EC50 (human GLP-1R [4]) of the same compound?
The EC50 was 0.432 nM.

And the Ki (human GIP receptor)?
The Ki was 0.0646 nM.

What about the Ki (human GLP-1R [5]) of the same compound?
The Ki was 2.17 nM.

From patent US12252524B2, “GIP/GLP1 co-agonist compounds” (Eli Lilly and Company, priority 2018, dated 2025)
